Where two headings read alike, the source gives them in different places.
Tests used:
HIV derived RRE RNA = experiment: heterologous hybridization inhibition assay with RRE RNA; assay type: binding; settings: radiolabeled RRE RNA, rRNA competitor
HBV = experiment: antiviral assay in 2.2.15 cells producing HBV (virion DNA dot blot); assay type: cell-based, Hepatitis B virus
Source text: Several cell lines and cell culture assays have been developed to identify potential therapeutics effective against chronic HBV infection. One of these cell lines, 2.2.15, has been used in a standardized assay that has repeatedly proven to be an accurate model of chronic cellular HBV replication and a predictive model of antiviral response for chronic hepadnaviral infection in vivo. 2.2.15 cells contain copies of the complete HBV genome integrated into the cell's genome, and 2.2.15 cells are not susceptible to infection by HBV. (Sells, M. A. et al., J. Virol. 62 (8): 2836-2844 (1988)). These cells express HBV genes producing complete HBV particles capable of infecting chimpanzees (Acs, G. et al., Proc. Natl. Acad. Sci. USA 84 (13): 4641-4644 (1987)). Briefly, 2.2.15 cells are cultured and pretreated with a test compound for about 9 days, at which point the media are harvested and subjected to dot-blot hybridization to detect HBV virion DNA.
The antiviral activity of the compounds of the present invention is measured by the methods described in Korba and Gering, Antiviral Res. 19: 55-70 (1992).
This assay format is well suited to the screening of test compounds for potential antiviral activity. The assay provides a threshold assessment of antiviral activity by measuring (i) the levels of HBV virion release from the cells and (ii) cytotoxicity. Two rows of cells were used for each compound, and 4 rows for the assay controls (two for untreated, and two for positive antiviral control, e.g., 3TC). After incubating in the presence of test compound for 9 days, the media were harvested, transferred to 96-well U-bottom plates, and centrifuged. The supernatants were transferred to tubes for dot blot hybridization analysis of HBV virion DNA. The medium was aspirated off of the toxicity plates and discarded. Toxicity plates were then incubated with neutral red dye (MTT can also be used if preferred), washed with DPBS, developed with an acetic acid-ethanol solution, and assayed in a plate reader.
1. 2.2.15 cells were seeded into 96-well, flat bottom tissue culture plates as described above. Duplicate plates were used for the antiviral treatments for each test compound (up to 8 compounds per pair of plates); after three to four days, cells were confluent and medium was yellow in color; the medium was removed and replaced with 100 μl RP2 24 hours before the beginning of drug treatment.
i) For each compound, a total of 4 concentrations were examined; this required 9 sets of 4 sterile, 1.1 ml minitubes (36 tubes per compound). Into the first tube of each set, sufficient compound was aliquoted to make up 700 μl (for 10-fold dilution series) or 980 μl (for 3.3-fold dilution series) of the highest test concentration; the other tubes were left empty.
i) For a 10-fold dilution series: to the first (compound containing) tube was added 700 μl (175 μl×4). 630 μl (210 μl×3) RP2 culture medium was added to the remaining 3 tubes. The first tube was mixed by pipeting up and down with a pipetman (a multichannel pipetman permits the simultaneous processing of multiple compounds). 70 μl of test compound-containing medium were serially transferred from the first tube to the other 3 tubes, taking care to thoroughly mix each tube before transferring medium;
b) 100 μl of each dilution of every compound was added to each of 6 wells (3 wells per plate) using the configuration listed below as an example. The lowest concentration was added first, and the same tips were used to add the higher concentrations. The untreated cells received 100 μl RP2 per well (untreated cells have to be carried on only one pair of the antiviral assay plates).
c) Treatments were repeated daily for 9 days. For the last day of treatment, and additional 200 μl RP2 were added to each well of the antiviral assay plates after the wells are treated with the test compounds (a total of 300 μl medium per well).
6. […]

[1] = extra-cellular virus reduced by 50%, 2.2.15 cells, 9 days treatment, read-out: Antiviral EC50

Q: How did the “RRE + rRNA IC50 (μM)” value (HIV derived RRE RNA) turn out when C(=NNc1nc(Nc2ccccc2)nc(N2CCCCC2)n1)c1ccccc1 [Compound 3] was run?
A: The value was “inactive”.

Q: And the EC50 (HBV; [1])?
A: The EC50 was 4.8 µM.

Q: Which “RRE + rRNA IC50 (μM)” value (HIV derived RRE RNA) does the source give for Cc1[nH]c2ccccc2c1C=NNc1nc(Nc2ccccc2)nc(N2CCOCC2)n1 [Compound 4] here?
A: Its value is “inactive”.

Q: What about the EC50 (HBV; [1]) of the same compound?
A: Its EC50 is 3.4 µM.

Q: Which results are given for FC(F)(F)c1cccc(Nc2nc(Nc3cccc(Br)c3)nc(N3CCOCC3)n2)c1 [Compound 38]?
A: RRE + rRNA IC50 (μM) (HIV derived RRE RNA): inactive; EC50 (HBV; [1]): 0.592 µM

Q: Which results are given for CCCCN(CCCC)c1nc(NN=Cc2c[nH]c3ccccc23)nc(Nc2ccc([N+](=O)[O-])cc2)n1 [Compound 39]?
A: RRE + rRNA IC50 (μM) (HIV derived RRE RNA): inactive; EC50 (HBV; [1]): 1 µM

Q: For Cc1ccc(Nc2nc(NN=Cc3ccc(Cl)c(Cl)c3)nc(Nc3ccccc3)n2)c(C)c1 [Compound 40], which “RRE + rRNA IC50 (μM)” value (HIV derived RRE RNA) is on record?
A: Its value is “inactive”.

Q: What about the EC50 (HBV; [1]) of the same compound?
A: Its EC50 is 30 µM.

Q: Which “RRE + rRNA IC50 (μM)” value (HIV derived RRE RNA) does the source give for O=[N+]([O-])c1ccc(Nc2nc(N/N=C/c3cccc(Cl)c3)nc(N3CCCCC3)n2)cc1 [Compound 41] here?
A: Its value is “inactive”.

Q: What about the EC50 (HBV; [1]) of the same compound?
A: Its EC50 is 36 µM.

Q: With Cc1ccc(Nc2nc(NN=Cc3ccc(Cl)cc3)nc(Nc3ccccc3)n2)c(C)c1 [Compound 42] as the compound, how does the “RRE + rRNA IC50 (μM)” value (HIV derived RRE RNA) read?
A: Its value is “inactive”.

Q: And the EC50 (HBV; [1])?
A: The EC50 was 6.1 µM.

Q: For Brc1cc2c(cc1C=NNc1nc(NCc3ccccc3)nc(Nc3ccccc3)n1)OCO2 [Compound 43], which “RRE + rRNA IC50 (μM)” value (HIV derived RRE RNA) is on record?
A: Its value is “inactive”.

Q: What about the EC50 (HBV; [1]) of the same compound?
A: Its EC50 is 0.841 µM.

Q: With COc1ccc(C=NNc2nc(Nc3ccc([N+](=O)[O-])cc3)nc(N3CCCCC3)n2)cc1 [Compound 44] as the compound, how does the “RRE + rRNA IC50 (μM)” value (HIV derived RRE RNA) read?
A: The value was “inactive”.

Q: And the EC50 (HBV; [1])?
A: Its EC50 is 4.8 µM.

Q: With O=[N+]([O-])c1ccc(C=NNc2nc(Nc3ccccc3)nc(NC3CCCCC3)n2)cc1 [Compound 46] as the compound, how does the “RRE + rRNA IC50 (μM)” value (HIV derived RRE RNA) read?
A: The value was “inactive”.

Q: And the EC50 (HBV; [1])?
A: The EC50 was > 100 µM.

Q: For Cc1ccc(Nc2nc(NN=Cc3cccc(Br)c3)nc(Nc3ccccc3)n2)c(C)c1 [Compound 49], which “RRE + rRNA IC50 (μM)” value (HIV derived RRE RNA) is on record?
A: Its value is “inactive”.

Q: And the EC50 (HBV; [1])?
A: Its EC50 is 1.2 µM.

Q: What does the source list for Cc1[nH]c2ccccc2c1C=NNc1nc(NCc2ccccc2)nc(Nc2ccccc2)n1 [Compound 50]?
A: RRE + rRNA IC50 (μM) (HIV derived RRE RNA): inactive; EC50 (HBV; [1]): 29 µM

Q: What does the source list for Cc1ccc(Nc2nc(NN=Cc3ccc4c(c3)OCO4)nc(Nc3ccccc3)n2)c(C)c1 [Compound 51]?
A: RRE + rRNA IC50 (μM) (HIV derived RRE RNA): inactive; EC50 (HBV; [1]): 15 µM

Q: Which results are given for O=[N+]([O-])c1cc(C=NNc2nc(Nc3ccccc3)nc(N3CCOCC3)n2)ccc1Cl [Compound 52]?
A: RRE + rRNA IC50 (μM) (HIV derived RRE RNA): inactive; EC50 (HBV; [1]): 4.5 µM

Q: For Oc1ccc(Nc2nc(Nc3cccc(C(F)(F)F)c3)nc(N3CCOCC3)n2)cc1 [Compound 53], which “RRE + rRNA IC50 (μM)” value (HIV derived RRE RNA) is on record?
A: Its value is “inactive”.

Q: What about the EC50 (HBV; [1]) of the same compound?
A: The EC50 was 1.2 µM.

Q: Which results are given for CC(C)c1ccc(C=NNc2nc(Nc3ccc([N+](=O)[O-])cc3)nc(N3CCCCCC3)n2)cc1 [Compound 56]?
A: RRE + rRNA IC50 (μM) (HIV derived RRE RNA): inactive; EC50 (HBV; [1]): > 100 µM

Q: What does the source list for COc1ccc(C=NNc2nc(Nc3ccccc3)nc(Nc3ccc(C)cc3C)n2)c(OC)c1 [Compound 61]?
A: RRE + rRNA IC50 (μM) (HIV derived RRE RNA): inactive; EC50 (HBV; [1]): 3.7 µM

Q: Which results are given for CC(C)c1ccc(C=NNc2nc(Nc3ccc([N+](=O)[O-])cc3)nc(N3CCCCC3)n2)cc1 [Compound 62]?
A: RRE + rRNA IC50 (μM) (HIV derived RRE RNA): inactive; EC50 (HBV; [1]): > 100 µM

Q: With CCN(CC)c1nc(N/N=C/c2ccc([N+](=O)[O-])cc2)nc(Nc2cc(C)ccc2C)n1 [Compound 63] as the compound, how does the “RRE + rRNA IC50 (μM)” value (HIV derived RRE RNA) read?
A: Its value is “inactive”.

Q: What about the EC50 (HBV; [1]) of the same compound?
A: The EC50 was > 100 µM.

Q: Which results are given for CNc1nc(NN=Cc2ccccc2[N+](=O)[O-])nc(Nc2ccccc2)n1 [Compound 65]?
A: RRE + rRNA IC50 (μM) (HIV derived RRE RNA): inactive; EC50 (HBV; [1]): > 100 µM

Q: CC(C)(C)Nc1nc(NCc2ccccc2)nc(NN=Cc2ccc3c(c2)OCO3)n1 [Compound 67] was tested. Which “RRE + rRNA IC50 (μM)” value (HIV derived RRE RNA) did it give?
A: The value was “inactive”.

Q: And the EC50 (HBV; [1])?
A: The EC50 was > 100 µM.

Q: How did the “RRE + rRNA IC50 (μM)” value (HIV derived RRE RNA) turn out when CCN(CC)c1nc(NN=Cc2ccc(F)cc2)nc(Nc2ccc([N+](=O)[O-])cc2)n1 [Compound 68] was run?
A: The value was “inactive”.

Q: What about the EC50 (HBV; [1]) of the same compound?
A: Its EC50 is > 100 µM.

Q: What does the source list for CCCCN(CCCC)c1nc(NN=C(C)c2ccccc2)nc(Nc2ccc([N+](=O)[O-])cc2)n1 [Compound 74]?
A: RRE + rRNA IC50 (μM) (HIV derived RRE RNA): inactive; EC50 (HBV; [1]): > 100 µM

Q: With CCN(CC)c1nc(NN=Cc2cc([N+](=O)[O-])ccc2OC)nc(Nc2cc(C)ccc2C)n1 [Compound 85] as the compound, how does the “RRE + rRNA IC50 (μM)” value (HIV derived RRE RNA) read?
A: Its value is “inactive”.

Q: And the EC50 (HBV; [1])?
A: Its EC50 is > 100 µM.

Q: Cc1[nH]c2ccccc2c1C=NNc1nc(Nc2ccccc2)nc(N2CCCCC2)n1 [Compound 88] was tested. Which IC50 (HIV derived RRE RNA) did it give?
A: The IC50 was 938 µM.

Q: What about the EC50 (HBV; [1]) of the same compound?
A: The EC50 was 4.8 µM.

Q: C(=Cc1ccccc1)C=NNc1nc(NCc2ccccc2)nc(Nc2ccccc2)n1 [Compound 91] was tested. Which IC50 (HIV derived RRE RNA) did it give?
A: The IC50 was 800 µM.

Q: What about the EC50 (HBV; [1]) of the same compound?
A: Its EC50 is > 100 µM.

Q: Which results are given for CC(C)(C)Nc1nc(NCc2ccccc2)nc(N/N=C/c2ccccc2F)n1 [Compound 93, 2-fluorobenzaldehyde N-[4-(benzylamino)-6-(tert-butylamino)-1,3,5-triazin-2-yl]hydrazone]?
A: RRE + rRNA IC50 (μM) (HIV derived RRE RNA): Inactive; EC50 (HBV; Hepatitis B virus, 216 h, read-out: Antiviral EC50 (μM)): 0.503 µM; EC50 (HBV; Hepatitis B virus, 216 h, extra-cellular virus reduced by 50%, 2.2.15 cells, 9 days treatment, read-out: Antiviral EC50): 0.006 µM

Q: With COc1ccccc1C=NNc1nc(Nc2ccc([N+](=O)[O-])cc2)nc(Nc2ccc(C)c(C)c2)n1 [Compound 94] as the compound, how does the IC50 (HIV derived RRE RNA) read?
A: Its IC50 is 250 µM.

Q: And the EC50 (HBV; [1])?
A: Its EC50 is > 100 µM.

Source: patent publication US6335339B1, “Triazine antiviral compounds” (Scriptgen Pharmaceuticals, Inc., priority 1998, dated 2002)
